# Data: patent US20200270575A1, “Culture System for Expanding Hematopoietic Stem Cells and/or Hematopoietic Progenitor Cells and the Method Thereof, Hematopoietic Stem Cells and Hematopoietic Progenitor Cells” (NEWISH TECHNOLOGY (BEIJING) CO., LTD., priority 2017, published 2020)
# Assays:
# immunodeficient mice = experiment: Transplantation experiment in vivo: reconstitution of human cells in bone marrow and peripheral blood after 4 months; conditions: for reconstruction effect of experimental group relative to control group (DMSO): 4 months; for blood cells in human peripheral blood (reconstitution proportion of peripheral blood) / reconstruction proportion of human blood cells in bone marrow (CD45+ cells): 4 months after transplantation
# Procedure: On the 7th day of the culturing, the transplantation experiment in vivo was carried out at the meantime. The expanded CD34+ cells in the experimental group and the control group were respectively injected into the immunodeficient mice by bone marrow transplantation. Each group contain 8 mice, and each mouse was injected with the total cells expanded from 5000 original CD34+ cells. The reconstitution ratio of human cells in peripheral blood and bone marrow of immunodeficient mice were measured after 4 months. In the experimental group, the reconstruction proportion of human blood cells in bone marrow (CD45+ cells) reached about 50%, and the blood cells in human peripheral blood reached about 5%. In the control group, the reconstruction proportion of human blood cells in bone marrow reached about 20%, and the blood cells in human peripheral blood reached about 1%. The reconstruction effect of the experimental group was about 4 times higher than that of the control group after a general comparison.
# [1] = system: cord blood-derived CD34+ cells; experiment: In vitro expansion of CD34+CD45RA− cells, 7-day culture of cord blood-derived CD34+ cells; format: cell-based, human
# Procedure: The material was derived from cord blood waste supplied by the company, and cord blood-derived CD34+ cells were isolated by magnetic bead sorting (MACS) as cultured materials in the following examples.
# CD34+ cells were cultured based on the culture conditions of Table 1. The experimental group (the small chemical molecule is SP600125) and the control group (the small chemical molecule is replaced by DMSO, the volume ratio of DMSO: medium is 1:10000) were placed in the cell incubator at 37° C. with the concentration of 5% carbon dioxide, and half amount of the medium was changed every 2 days.
# On the 7th day of the culturing, the ratio of CD34+CD45RA−cells was measured, and the fold expansion was counted and calculated. The CD34+CD45RA− in the experimental group was about 15 times in the fold expansion, while the CD34+CD45RA− in the control group was about 5 times in fold expansion.
# immunodeficiency mice = conditions: background, 2010 report; cited from earlier work
# LT-HSC = conditions: background, 2014 report; cited from earlier work
# [2] = Example 4: cells expanded with 5 μM
# [3] = Example 5: cells expanded with 1 μM
# [4] = Example 6: cells expanded with 0.5 μM
# [5] = Example 2: cells expanded with 4 μM
# [6] = Example 3: cells expanded with 2 μM
# [7] = Example 7: cells expanded with 5 μM
smiles,measurement,setting,value
N#C/C(=C1/Nc2ccccc2S1)c1ccnc(NCCc2cccnc2)n1 [AEG-3482],reconstruction effect of experimental group relative to control group (DMSO),"immunodeficient mice; Example 4: 5 μM, general comparison",about 2.5 times
same,blood cells in human peripheral blood (reconstitution proportion of peripheral blood),immunodeficient mice; [2],about 3.5%
same,reconstruction proportion of human blood cells in bone marrow (CD45+ cells),immunodeficient mice; [2],about 35%
same,proliferation amount of CD34+CD45RA− in the experimental group relative to control group (DMSO),"[1]; Example 4: 5 μM, SCF 10, FL 100, TPO 10 ng/ml, LDL 2 μg/ml, day 7",2.3 times
CN(C)C/C=C/C(=O)Nc1cccc(C(=O)Nc2ccc(Nc3nccc(-c4cccnc4)n3)cc2)c1 [JNK-IN-7],reconstruction effect of experimental group relative to control group (DMSO),"immunodeficient mice; Example 5: 1 μM, general comparison",about 5 times
same,blood cells in human peripheral blood (reconstitution proportion of peripheral blood),immunodeficient mice; [3],about 8.5%
same,reconstruction proportion of human blood cells in bone marrow (CD45+ cells),immunodeficient mice; [3],about 58%
same,proliferation amount of CD34+CD45RA− in the experimental group relative to control group (DMSO),"[1]; Example 5: 1 μM, SCF 200, FL 50, TPO 5 ng/ml, LDL 10 μg/ml, day 7",2.5 times
CN(C)C/C=C/C(=O)Nc1cccc(C(=O)Nc2ccc(Nc3nccc(-c4c(-c5ccccc5)nn5ccccc45)n3)cc2)c1 [JNK-IN-11],reconstruction effect of experimental group relative to control group (DMSO),"immunodeficient mice; Example 6: 0.5 μM, general comparison",about 8 times
same,blood cells in human peripheral blood (reconstitution proportion of peripheral blood),immunodeficient mice; [4],about 12.5%
same,reconstruction proportion of human blood cells in bone marrow (CD45+ cells),immunodeficient mice; [4],about 78%
same,proliferation amount of CD34+CD45RA− in the experimental group relative to control group (DMSO),"[1]; Example 6: 0.5 μM, SCF 300, FL 100, TPO 20 ng/ml, LDL 10 μg/ml, day 7",2.8 times
O=C1c2ccccc2-c2n[nH]c3cccc1c23 [SP600125],reconstruction effect of experimental group relative to control group (DMSO),"immunodeficient mice; Example 1: 4 μM, general comparison",about 4 times
same,blood cells in human peripheral blood (reconstitution proportion of peripheral blood),immunodeficient mice; Example 1: cells expanded with 4 μM,about 5%
same,reconstruction proportion of human blood cells in bone marrow (CD45+ cells),"immunodeficient mice; Example 1: cells expanded with 4 μM, cells from 5000 original CD34+ cells per mouse",about 50%
same,reconstruction effect of experimental group relative to control group (DMSO),"immunodeficient mice; Example 2: 4 μM, general comprehensive comparison",about 6 times
same,blood cells in human peripheral blood (reconstitution proportion of peripheral blood),immunodeficient mice; [5],about 9%
same,reconstruction proportion of human blood cells in bone marrow (CD45+ cells),immunodeficient mice; [5],about 70%
same,reconstruction effect of experimental group relative to control group (DMSO),"immunodeficient mice; Example 3: 2 μM, general comparison",about 4 times
same,blood cells in human peripheral blood (reconstitution proportion of peripheral blood),immunodeficient mice; [6],about 4%
same,reconstruction proportion of human blood cells in bone marrow (CD45+ cells),immunodeficient mice; [6],about 40%
same,reconstruction effect of experimental group relative to control group (DMSO),"immunodeficient mice; Example 7: 5 μM, general comparison",about 5.5 times
same,blood cells in human peripheral blood (reconstitution proportion of peripheral blood),immunodeficient mice; [7],about 7.5%
same,reconstruction proportion of human blood cells in bone marrow (CD45+ cells),immunodeficient mice; [7],about 58%
same,fold expansion of CD34+CD45RA− cells at day 7 relative to the primary cells,"[1]; Example 1: 4 μM, SCF 100, FL 100, TPO 50 ng/ml, LDL 10 μg/ml",about 15 times
same,CD34+CD45RA− in the experimental group relative to control group (DMSO),"[1]; Example 2: 4 μM, SCF 50, FL 50, TPO 25 ng/ml, LDL 5 μg/ml, day 7",2.5 times
same,proliferation amount of CD34+CD45RA− in the experimental group relative to control group (DMSO),"[1]; Example 3: 2 μM, SCF 20, FL 50, TPO 20 ng/ml, LDL 5 μg/ml, day 7",2 times
same,proliferation amount of CD34+CD45RA− in the experimental group relative to control group (DMSO),"[1]; Example 7: 5 μM, SCF 500, FL 100, TPO 20 ng/ml, LDL 10 μg/ml, day 7",2.3 times
CC(C)n1cnc2c(NCCc3ccc(O)cc3)nc(-c3csc4ccccc34)nc21 [SR1],increase of the amount of exogenous hematopoietic cells detected in immunodeficiency mice,immunodeficiency mice,17 times
Cn1nnc(-c2ccc3c(c2)[nH]c2nc(Cc4ccccc4)nc(NC4CCC(N)CC4)c23)n1 (stereo not drawn) [UM171],maintenance of the function of hematopoietic reconstitution,LT-HSC,up to 6 months
